Data: patent US9271960B2, “Tetrahydrocarbazoles as active agents for inhibiting VEGF production by translational control” (PTC Therapeutics, Inc., priority 2004, dated 2016)
pEC50: −log10 of the molar value. Like-named read-outs stand apart in the source and are kept apart here.

Tested on: VEGF
Assay: Hypoxia-inducible endogenous VEGF expression ELISA in HeLa cells
Format: cell-based
Conditions: VEGF protein by ELISA
Procedure: The ability of compounds of the invention to modulate hypoxia-inducible endogenous VEGF expression is analyzed as follows. VEGF protein levels are monitored by an ELISA assay (R&D Systems). Briefly, HeLa cells are cultured for 24-48 hours under hypoxic conditions (1% O2, 5% CO2, balanced with nitrogen) in the presence or absence of a compound of the invention. The conditioned media is then assayed by ELISA, and the concentration of VEGF is calculated from the standard ELISA curve of each assay.
A dose-response analysis is performed using the ELISA assay and conditions described above. A series of different concentrations (e.g., seven) are analyzed. In parallel, a dose-response cytotoxicity assay is performed using Cell Titer Glo (Promega) under the same conditions as the ELISA to ensure that the inhibition of VEGF expression is not due to cytotoxicity. Dose-response curves are plotted using percentage inhibition versus concentration of the compound, and EC50 and CC50 values are generated for each compound with the maximal inhibition set as 100% and the minimal inhibition as 0%.
Compounds 156-188 in Table 1 are commercially available. In Table 1, each of the represented compounds is followed by one to five stars.

[1] = Homo sapiens, HeLa, compounds 1-155, hypoxic conditions (1% O2), read-out: ELISA Activity
[2] = Homo sapiens, HeLa, compounds 191-239, hypoxic conditions, read-out: ELISA Activity EC50

Row | Molecule | pEC50 [1] | further results
1 | Cn1c2c(c3cc(Br)ccc31)CCCC2=O [Compound 88, 6-Bromo-9-methyl-2,3,4,9-tetrahydro-carbazol-1-one] | < 6.00 | –
2 | Brc1ccc2[nH]c3c(c2c1)CCCC3NCCN1CCOCC1 (centres unmarked) [Compound 122, (6-Bromo-2,3,4,9-tetrahydro-1H-carbazol-1-yl)-(2-morpholin-4-yl-ethyl)-amine] | < 6.00 | –
3 | O=C1CCCc2c1oc1ccc(Br)cc21 [Compound 105, 8-Bromo-2,3-dihydro-1H-dibenzofuran-4-one] | < 6.00 | –
4 | c1ccn(C2CCCc3c2[nH]c2ccc(N4CCOCC4)cc32)c1 (centres unmarked) [Compound 104, 6-Morpholin-4-yl-1-pyrrol-1-yl-2,3,4,9-tetrahydro-1H-carbazole] | < 6.00 | –
5 | CN(C(=O)c1cccc(Cl)c1)C1CCCc2c1[nH]c1ccc(Br)cc21 (centres unmarked) [Compound 66, N-(6-Bromo-2,3,4,9-tetrahydro-1H-carbazol-1-yl)-3-chloro-N-methyl-benzamide] | 6.00 to 6.70 | –
6 | OC1CCc2c([nH]c3ccc(Br)cc23)C1c1ccc(F)cc1 (centres unmarked) [Compound 239] | – | pEC50 [2]: > 8.00
7 | Cc1ccc2[nH]c3c(c2c1)CCCC3=O [Compound 71, 6-Methyl-2,3,4,9-tetrahydro-carbazol-1-one] | 6.00 to 6.70 | –
8 | Cc1cc(C(=O)NC2CCCc3c2[nH]c2ccc(Br)cc32)no1 (centres unmarked) [Compound 191] | – | pEC50 [2]: > 8.00
9 | 3-(8-Cyclohexyl-1,2,3a,4,5,6- hexahydro-pyrazino[3,2,1- jk]carbazol-3-yl)-propionic acid [Compound 183] | – | pEC50 (purchased compounds 156-188, hypoxic conditions, read-out: ELISA Activity): < 6.00; pEC50 (purchased compounds 156-188, hypoxic conditions, read-out: ELISA EC50): < 5.00
10 | CN(C)c1ccc(NC2CCCc3c2[nH]c2ccc(Br)cc32)cc1 (centres unmarked) [Compound 61, N-(6-Bromo-2,3,4,9-tetrahydro-1H-carbazol-1-yl)-N′,N′-dimethyl-benzene-1,4-diamine] | 6.00 to 6.70 | –
11 | Cc1ccc2c(c1)c1c3n2CCN(N=O)C3CCC1 (centres unmarked) [Compound 162, 8-Methyl-3-nitroso-2,3,3a,4,5,6-hexahydro-1H-pyrazino[3,2,1-jk]carbazole] | – | pEC50 (Homo sapiens, HeLa, purchased compounds 156-188, hypoxic conditions, read-out: ELISA Activity): 6.00 to 6.70; pEC50 (Homo sapiens, HeLa, purchased compounds 156-188, hypoxic conditions, read-out: ELISA EC50): 6.05
12 | NC1CCCc2c1[nH]c1cc(Br)ccc21 (centres unmarked) [Compound 94, 7-Bromo-2,3,4,9-tetrahydro-1H-carbazol-1-ylamine; compound with methane] | < 6.00 | –
13 | OC(COc1ccc(C2CCCCc3c2[nH]c2ccc(Cl)cc32)cc1)CN1CCOCC1 (centres unmarked) [Compound 228] | – | pEC50 [2]: 7.40 to 8.00

Further lines, with some results ahead:

Row | pEC50 [1] | Molecule | further results
14 | 7.40 to 8.00 | Brc1ccc2[nH]c3c(c2c1)CCCCC3Nc1ccccc1 (centres unmarked) [Compound 33, (2-Bromo-5,6,7,8,9,10-hexahydro-cyclohepta[b]indol-6-yl)-phenyl-amine] | –
15 | 7.40 to 8.00 | Cc1cc(C(=O)NC2CCCc3c2[nH]c2ccc(Br)cc32)no1 (centres unmarked) [Compound 151, 5-Methyl-isoxazole-3-carboxylic acid (6-bromo-2,3,4,9-tetrahydro-1H-carbazol-1-yl)-amide] | –
16 | 6.00 to 6.70 | O=C1CCCc2c1[nH]c1ccc(C(F)(F)F)cc21 [Compound 60, 6-Trifluoromethyl-2,3,4,9-tetrahydro-carbazol-1-one] | –
17 | 6.70 to 7.40 | O=C(NC1CCCc2c1[nH]c1ccc(Cl)cc21)c1cccs1 (centres unmarked) [Compound 143, Thiophene-2-carboxylic acid (6-chloro-2,3,4,9-tetrahydro-1H-carbazol-1-yl)-amide] | –
18 | > 8.00 | COc1ccc(NC2CCCc3c2[nH]c2ccc(Cl)cc32)cc1 (centres unmarked) [Compound 136, (6-Chloro-2,3,4,9-tetrahydro-1H-carbazol-1-yl)-(4-methoxy-phenyl)-amine] | –
19 | 7.40 to 8.00 | N#Cc1ccc(C(=O)NC2CCCc3c2[nH]c2ccc(Br)cc32)cc1 (centres unmarked) [Compound 132, N-(6-Bromo-2,3,4,9-tetrahydro-1H-carbazol-1-yl)-4-cyano-benzamide] | –
20 | 6.70 to 7.40 | Clc1ccc2[nH]c3c(c2c1Cl)CCCC3n1cccc1 (centres unmarked) [Compound 48, 5,6-Dichloro-1-pyrrol-1-yl-2,3,4,9-tetrahydro-1H-carbazole] | –
21 | > 8.00 | Clc1ccc(NC2CCCc3c2[nH]c2ccc(Br)cc32)cc1 (centres unmarked) [Compound 3, (6-Bromo-2,3,4,9-tetrahydro-1H-carbazol-1-yl)-(4-chloro-phenyl)-amine] | –
